Assay results as given in publication PMC10412585 (Nature Communications, 2023).

Key:
CD94/NKG2C = assay: Steady-state SPR of peptide-HLA-E single chain trimers with CD94/NKG2C; assay type: binding, human; details: from Figure 5C KD values, stated in author rebuttal
Description: Specifically, we measured CD94/NKG2A and CD94/NKG2C affinity for HLA-E complexed with three sets of peptides. […] Third, we included […] peptide as a positive control.
Steady-state surface plasmon resonance experiments were performed with a Biacore T200 instrument. CD94/NKG2x in HBS-EP+ buffer was injected as analyte in a concentration range of 0.1 μM to 102.4 μM and flow rate of 10 μL/min at 25 °C. Data was fit with Prism 9.4 (GraphPad Software Inc; San Diego CA) to a “one site, specific binding” model. Sensorgrams are included in Supplemental Fig. 13.
For investigating WN peptides, biotinylated pMHC was immobilized at approximately 400 Response Units (RU) on a Series S SA sensor chip (Cytiva). […] CD94/NKG2A was injected followed by CD94/NKG2C.
For investigating human-derived peptides, Series S CM5 chips (Cytiva) were coupled to neutravidin and utilized. Biotinylated pMHC was immobilized at approximately 400 RU. On one chip, […] CD94/NKG2A was injected followed by CD94/NKG2C. On a second chip, PISD55-63 HLA-E SCT, AKAP6_388-396 HLA-E SCT, GTF3C5_293-301 HLA-E SCT, and reference HLA-DR401 were immobilized. CD94/NKG2C was injected followed by CD94/NKG2A. Rmax, fit values were calculated by Biacore software. Rmax, theoretical values were calculated using the analyte/ligand mass ratio (0.66) multiplied by the amount of ligand coupled to the chip.

NKG2A-/NKG2C+ NK cells = assay: NK cell activation assay with peptide-pulsed K562/HLA-E cells, NKG2A-/NKG2C+ NK cells; assay type: cell-based, human; details: K562/HLA-E target cells, 300 µM peptide ([…] µM BFAR263-271), E:T 2:1, 6 h; degranulation (CD107a), IFN-γ, TNF, CCL3; flow cytometry
NKG2A+/NKG2C- NK cells = assay: NK cell activation assay with peptide-pulsed K562/HLA-E cells, NKG2A+/NKG2C- NK cells; assay type: cell-based, human; details: K562/HLA-E target cells, 300 µM peptide ([…] µM BFAR263-271), E:T 2:1, 6 h; degranulation (CD107a), IFN-γ, TNF, CCL3; flow cytometry

Row | Sequence | weaker affinity of CD94/NKG2C compared to CD94/NKG2A (CD94/NKG2C) | weaker affinity of CD94/NKG2C compared to CD94/NKG2A (CD94/NKG2C; listed as VL9) | activating effects on NKG2C+ cells (NKG2A-/NKG2C+ NK cells) | inhibitory effects on NKG2A+ cells (NKG2A+/NKG2C- NK cells)
1 | VMAPRTLFL [positive control] | ~ 3 fold | ~ 2.7 fold | – | –
2 | VNPGRSLFL [BFAR263-271, human peptide from Bifunctional apoptosis regulator] | – | – | clear activating effects | minimal inhibitory effects
